From US12060349B2, “Glucosylceramide synthase inhibitors” (Genzyme Corporation, priority 2012, dated 2024) come the findings set out here.

One experiment concerns C32 human melanoma cells. The experiment can be described thus: cell viability in the C32 cell-based assay (Viability, C32 IC50). The following applies: Homo sapiens, concentration causing 50% cell death, values greater than 10 represent a lack of cell death. In outline:
(§1)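 Two melanoma lines, mouse B16 and human C32, were treated and surface GM3 quantified by antibody immunofluorescence for IC50. A parallel viability readout gives the concentration killing 50% of cells, with values over 10 indicating no cell death.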

In another experiment the test system is B16 mouse melanoma cells. The experiment can be described thus: cell viability in the B16 cell-based assay (Viability, B16 IC50). Conditions: Mus musculus. In outline:
as §1

Experiment [1] deals with GM3 expression on the cell surface, B16 mouse melanoma cells. The experiment can be described thus: cell based phenotypic assay, cell surface GM3 by antibody mediated immunofluorescence, B16 (GM3 B16 IC50). The following applies: Mus musculus, 50% inhibition of GM3 expression on the cell surface. In outline: (§2)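 B16 mouse and C32 human melanoma cells; cell-surface GM3 measured by antibody-mediated immunofluorescence, giving IC50.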

Experiment [2] has as its system GM3 expression on the cell surface, C32 human melanoma cells. Put plainly: cell based phenotypic assay, cell surface GM3 by antibody mediated immunofluorescence, C32 (GM3 C32 IC50). The following applies: Homo sapiens, 50% inhibition of GM3 expression on the cell surface. A digest of the protocol: as §2
The target in experiment [3] is T1, glucosylceramide synthase (Homo sapiens, UniProt Q16739).
T1 construct: Microsomes were isolated from A375 human melanoma cells; endogenous in cells; host or cells: A375 human melanoma cells (microsomal fraction, 100,000 g pellet)
T1 sequence (Q16739 1-394): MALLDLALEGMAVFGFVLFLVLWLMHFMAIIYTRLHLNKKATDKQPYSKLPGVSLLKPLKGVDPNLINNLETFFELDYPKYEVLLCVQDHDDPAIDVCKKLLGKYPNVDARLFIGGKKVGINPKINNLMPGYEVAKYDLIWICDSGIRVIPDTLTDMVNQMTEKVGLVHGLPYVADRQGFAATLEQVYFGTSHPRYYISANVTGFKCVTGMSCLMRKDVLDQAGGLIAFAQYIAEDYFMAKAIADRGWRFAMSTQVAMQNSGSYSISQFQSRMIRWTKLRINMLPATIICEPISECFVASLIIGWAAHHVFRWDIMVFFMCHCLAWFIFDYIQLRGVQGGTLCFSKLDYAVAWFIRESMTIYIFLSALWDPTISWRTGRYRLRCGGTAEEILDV
The experiment can be described thus: microsomal assay measuring conversion of ceramide to glucosylceramide by HPLC (GCS IC50). The following applies: concentration causing 50% inhibition of glucosylceramide synthase activity. It counts as biochemical. A digest of the protocol: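 Microsomal preparation assayed for glucosylceramide synthase by direct HPLC measurement of ceramide conversion to glucosylceramide. GCS IC50 is the compound concentration giving 50% inhibition of enzyme activity.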

Where [4] appears, read: C32, C32 cells, read-out: Viability, C32 IC50.
Where [5] appears, read: B16, B16 cells, concentration causing 50% cell death, values greater than 10 represent a lack of cell death, read-out: Viability, B16 IC50.
[6] abbreviates: B16 mouse melanoma cells, read-out: GM3 B16 IC50.
[7] abbreviates: C32 human melanoma cells, read-out: GM3 C32 IC50.
The mark [8] stands for this setting: C32, read-out: Viability, C32 IC50, C32 cells.
Where [9] appears, read: B16, read-out: Viability, B16 IC50.
Setting [10] is: read-out: GM3 B16 IC50, B16 mouse melanoma cells.
[11] abbreviates: read-out: GM3 C32 IC50, C32 human melanoma cells.

SMILES strings stand for the structures. Where two headings read alike, the source gives them in different places.

For the molecule `CCOc1ccc(-c2cccc(C(C)(C)NC(=O)OC3CCN4CCC3CC4)c2)nn1` (stereo not drawn) [Example 319, 1-Azabicyclo[3.2.2]nonan-4-yl (2-(3-(6-ethoxypyridazin-3-yl)phenyl)propan-2-yl)carbamate], the IC50 is ≥ 10000 nM in the experiment with C32 human melanoma cells (setting [4]); ≥ 10000 nM with B16 mouse melanoma cells (setting [5]); 121 nM in experiment [1] (setting [6]); 8.04 nM in experiment [2] (setting [7]); 75 nM in experiment [3].

Consider `COCCCOc1cnc(-c2ccc(C(C)(C)NC(=O)OC3CN4CCC3CC4)cc2)cn1` (stereo not drawn) [Example 320, Quinuclidin-3-yl (2-(4-(5-(3-methoxypropoxy)pyrazin-2-yl)phenyl)propan-2-yl)carbamate], for which the IC50 is 1000 nM with C32 human melanoma cells (setting [8]); ≥ 10000 nM in the experiment on B16 mouse melanoma cells (setting [9]); 201 nM in experiment [1] (setting [10]); 11.2 nM in experiment [2] (setting [11]); 131 nM in experiment [3].

Regarding `COCCCOc1cnc(-c2ccc(C(C)(C)NC(=O)OC3CCN4CCC3CC4)cc2)cn1` (stereo not drawn) [Example 321, 1-Azabicyclo[3.2.2]nonan-4-yl (2-(4-(5-(3-methoxypropoxy)pyrazin-2-yl)phenyl)propan-2-yl)carbamate], the IC50 was 1000 nM with C32 human melanoma cells (setting [4]); ≥ 10000 nM in the experiment on B16 mouse melanoma cells (setting [5]); 108 nM in experiment [1] (setting [6]); 6.39 nM in experiment [2] (setting [7]); 46.1 nM in experiment [3].

On to `COCCCOc1cnc(-c2ccc(C(C)(C)NC(=O)N3CCN4CCC3CC4)cc2)cn1` [Example 322, N-(2-(4-(5-(3-methoxypropoxy)pyrazin-2-yl)phenyl)propan-2-yl)-1,4-diazabicyclo[3.2.2]nonane-4-carboxamide], for which the IC50 is 1000 nM in the experiment with C32 human melanoma cells (setting [4]); ≥ 10000 nM with B16 mouse melanoma cells (setting [5]); 1440 nM in experiment [1] (setting [6]); 99.9 nM in experiment [2] (setting [7]); 1070 nM in experiment [3].

As for `COCCCOc1cnc(-c2cccc(C(C)(C)NC(=O)OC3CN4CCC3CC4)c2)nc1` (stereo not drawn) [Example 323, Quinuclidin-3-yl (2-(3-(5-(3-methoxypropoxy)pyrimidin-2-yl)phenyl)propan-2-yl)carbamate], the IC50 with C32 human melanoma cells (setting [8]) is 1000 nM; in the experiment with B16 mouse melanoma cells (setting [9]) it was ≥ 10000 nM; in experiment [1] (setting [10]), 508 nM; in experiment [2] (setting [11]), 48.8 nM; in experiment [3] it was 1160 nM.

In the case of `COCCCOc1cnc(-c2cccc(C(C)(C)NC(=O)OC3CCN4CCC3CC4)c2)nc1` (stereo not drawn) [Example 324, 1-Azabicyclo[3.2.2]nonan-4-yl (2-(3-(5-(3-methoxypropoxy)pyrimidin-2-yl)phenyl)propan-2-yl)carbamate], the IC50 is 1000 nM in the experiment with C32 human melanoma cells (setting [4]); ≥ 10000 nM in the experiment on B16 mouse melanoma cells (setting [5]); 157 nM in experiment [1] (setting [6]); 8.49 nM in experiment [2] (setting [7]); 96.9 nM in experiment [3].

In the case of `CCC1(NC(=O)NC(C)(C)C#Cc2ccc(CCOC)cc2)CN2CCC1CC2` (stereo not drawn) [Example 325, 1-(3-Ethylquinuclidin-3-yl)-3-(4-(4-(2-methoxyethyl)phenyl)-2-methylbut-3-yn-2-yl)urea], the IC50 was ≥ 10000 nM in the experiment on C32 human melanoma cells (setting [4]); ≥ 10000 nM in the experiment with B16 mouse melanoma cells (setting [5]); 399 nM in experiment [1] (setting [6]); 7.94 nM in experiment [2] (setting [7]); 92 nM in experiment [3].

In the case of `CCCC1(NC(=O)NC(C)(C)C#Cc2ccc(CCOC)cc2)CN2CCC1CC2` (stereo not drawn) [Example 326, 1-(4-(4-(2-Methoxyethyl)phenyl)-2-methylbut-3-yn-2-yl)-3-(3-propylquinuclidin-3-yl)urea], the IC50 with C32 human melanoma cells (setting [4]) was 3160 nM; with B16 mouse melanoma cells (setting [5]), 3160 nM; in experiment [1] (setting [6]), 123 nM; in experiment [2] (setting [7]), 4.29 nM; in experiment [3] it was 26.6 nM.

With `CCC1(NC(=O)NC(C)(C)C#Cc2ccc(COC)cc2)CN2CCC1CC2` (stereo not drawn) [Example 327, 1-(3-Ethylquinuclidin-3-yl)-3-(4-(4-(methoxymethyl)phenyl)-2-methylbut-3-yn-2-yl)urea], the IC50 with C32 human melanoma cells (setting [4]) was ≥ 10000 nM; in the experiment with B16 mouse melanoma cells (setting [5]), ≥ 10000 nM; in experiment [1] (setting [6]) it was 343 nM; in experiment [2] (setting [7]), 14.7 nM; in experiment [3], 96.2 nM.

The term IC50 denotes the concentration needed to halve the response being measured.
